The subject of test [1] is SP-1 papilloma model. Kind of test: SP-1 papilloma three-dimensional model, area of cell cover (propidium iodide stained whole mounts). Format: cell-based, mouse. The note with it: SP-1 model. As for the experimental part: In summary the in vitro models were developed using contracted collagen gels which supported a layer of mouse tumour cells or corresponding “normal” epithelial cells. The collagen gel was comprised of type I collagen, isolated from rat tail tendon, contracted using primary mouse fibroblasts, which were isolated from the dermis of newborn (or embryonic) mice. The collagen gels contracted to a size approximately 1.5 cm in diameter and were seeded with a single cell suspension of mouse tumour or normal epithelial cells. The models were initially maintained as submerged cultures, which allowed the cells to adhere to the collagen gel and grow. The models may thereafter be raised to the air-liquid interface (semi-submerged culture) to promote cell differentiation and formation of tissue. […] Test agents can be added to the model system at different stages of tumour development. The models are directly imaged as whole mounts by fluorescent labelling of cells either with vital dyes or genetic markers or after fixation and staining.
In more detail, the collagen gel, described below, which supports the layer of epithelial cells (BalbMK (Weissman and Aaronson 1985), SP-1 (Strickland et al. 1988) or T52 Hufos (Greenhalgh and Yuspa 1988) in the prototype models), was contracted using dermal fibroblasts isolated from newborn mouse skin. The epidermis and dermis were separated from each other following an overnight digestion with trypsin at 4° C. The dermal tissue washed in sterile PBS, dissected-into very small pieces, suspended in 3-5 ml of MEM culture media and the slurry seeded into a 75 cm^2 plastic culture flask. This tissue was cultured without disturbance until the tissue pieces had adhered to the plastic flask. Fresh MEM (Minimum Essential Medium) supplemented with 10% foetal calf serum, 1% L-glutamine, 100 U/ml penicillin and 100 μg/ml streptomycin was added to the flask at this time. Fibroblast cell outgrowth from the dermal tissue explants was observed after several days. The excess tissue was removed and the fibroblast cells cultured to confluence. […]

For test [2], the system named is T52 Hufos invasive tumour model. Kind of test: T52 Hufos invasive tumour three-dimensional model, area of cell cover. The format is cell-based, mouse. The note with it: 10^−7M RA, 10 day culture period (FIG. 7).
Description: Hufos invasive tumour model over a 10 day culture period. In summary the in vitro models were developed using contracted collagen gels which supported a layer of mouse tumour cells or corresponding “normal” epithelial cells. The collagen gel was comprised of type I collagen, isolated from rat tail tendon, contracted using primary mouse fibroblasts, which were isolated from the dermis of newborn (or embryonic) mice. The collagen gels contracted to a size approximately 1.5 cm in diameter and were seeded with a single cell suspension of mouse tumour or normal epithelial cells. The models were initially maintained as submerged cultures, which allowed the cells to adhere to the collagen gel and grow. The models may thereafter be raised to the air-liquid interface (semi-submerged culture) to promote cell differentiation and formation of tissue. […] Test agents can be added to the model system at different stages of tumour development. The models are directly imaged as whole mounts by fluorescent labelling of cells either with vital dyes or genetic markers or after fixation and staining. In more detail, the collagen gel, described below, which supports the layer of epithelial cells (BalbMK (Weissman and Aaronson 1985), SP-1 (Strickland et al. 1988) or [MUT] Hufos (Greenhalgh and Yuspa 1988) in the prototype models), was contracted using dermal fibroblasts isolated from newborn mouse skin. […]
A further test concerns SP-1 cells. The test can be described thus: Growth curves of SP-1 cells in monolayer culture. The following applies: Mus musculus, 240 h; SP-1 monolayer culture, 10 days in culture, 10^−7M RA; read-out: inhibition of the log phase of growth. Format: cell-based.
Test [3] deals with SP-1 papilloma model. Kind of test: SP-1 papilloma model, cell killing (H & E stained paraffin sections). Format: cell-based, mouse. The note with it: SP-1 model. As to the method:
(§1) FIG. 10: Treatment of models with the anti-tumour drug cisplatin. H & E stained paraffin sections (×400 magnification) of SP-1 “papilloma” model (A, C and E) and T52-Hufos “invasive tumour” model (B, D and F). Shown are (A and B) untreated models (without cisplatin), (C and D) models treated with 50 μM cisplatin and (E and F) models treated with 500 μM cisplatin.
(§2) Cell models were harvested at appropriate time intervals and fixed overnight, at room temperature in a solution of buffered formalin. A small piece of the model was removed and embedded in paraffin wax. Sections were cut and mounted onto glass slides and stained with haematoxylin and eosin (H & E stain). The remainder of the model washed in PBS (phosphate buffered saline), permeabilised with Triton X-100 and stained with propidium iodide (PI). The washed models were stored thereafter in the dark at 4° C. and maintained their fluorescence for several weeks. Whole mounts of the PI stained models were analysed using fluorescent microscopy through coverslips applied directly to the surface of the tissue.

For test [4], the system named is T52 Hufos invasive tumour model. Kind of test: T52 Hufos invasive tumour model, cell killing (H & E stained paraffin sections). Format: cell-based, mouse. As to the method: as §1, §2
[5] abbreviates: higher cisplatin concentration (500 μM, FIG. 10).
The mark [6] stands for this setting: lower cisplatin concentration (50 μM, FIG. 10).

For the compound `CC1=C(/C=C/C(C)=C/C=C/C(C)=C/C(=O)O)C(C)(C)CCC1` [RA, All-trans-Retinoic acid], the “effect on area of cell cover” value in the test with SP-1 papilloma model [1] (10^−6M RA (highest concentration studied), day 8 and day 10 (FIG. 6)) was “marked effect”; with SP-1 papilloma model [1] (10^−7M RA, vs untreated controls, time course to day 12 (FIG. 5)), “modest effect with less cell cover than the corresponding untreated controls”; in test [2] it was “no effect”. Besides, the “degree of growth inhibition, concentration dependence” value with SP-1 papilloma model [1] (RA at 10^−6M, 10^−7M and 10^−8M (FIG. 6)) is reported as “concentration dependent”. Besides, the inhibition at 0.1 µM with SP-1 cells was determined as 46%.

As to `N.N.[Cl][Pt][Cl]` [cisplatin], the cell killing result with SP-1 papilloma model [3] (setting [5]) is listed as “extensive cell death”; in the test on SP-1 papilloma model [3] (setting [6]), “evidence of cell killing”; in test [4] (setting [5]) it was “extensive cell death”; in test [4] (setting [6]) it was “evidence of cell killing”.

Source of the values: patent publication US20070218509A1, “Murine Living Tissue Model & UsesTthereof” (priority 2003, published 2007).
